Source: the supplement of paper PMC10307832

Columns and labels:
Assay in all cases: relative viability (nuclei count vs DMSO), 5 days (fraction); higher = more cells survive
[1] = compound: CN[C@@H]1C[C@H]2O[C@@](C)([C@@H]1OC)n1c3ccccc3c3c4c(c5c6ccccc6n2c5c31)C(=O)NC4 [Staurosporine] + Cc1nc(Nc2ncc(C(=O)Nc3c(C)cccc3Cl)s2)cc(N2CCN(CCO)CC2)n1 [Dasatinib] (partner 0.075 µM)
How it was run: (§1)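 Dosing by pin tool came one day after lung cancer cell lines were seeded in 1536-well plates, using either one drug or a fixed anchor-drug dose plus five library-drug doses (not always all listed) in √10 steps. After 5 days, nuclei were counted on 4× images. Relative viability is treated-well nuclei count divided by vehicle-well nuclei count, and values are medians of duplicate plates.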

Sulindac + Crizotinib = compound: CC1=C(CC(=O)O)c2cc(F)ccc2/C1=C\c1ccc([S+](C)[O-])cc1 [Sulindac] + C[C@@H](Oc1cc(-c2cnn(C3CCNCC3)c2)cnc1N)c1c(Cl)ccc(F)c1Cl [Crizotinib] (partner 1 µM)
How it was run: as §1

[2] = compound: O=c1[nH]cc(F)c(=O)[nH]1 [5-Fluorouracil] + CC(C)C[C@H](NC(=O)[C@H](Cc1ccccc1)NC(=O)c1cnccn1)B(O)O [Bortezomib] (partner 0.002 µM)
How it was run: as §1

Sulindac + Phenformin = compound: CC1=C(CC(=O)O)c2cc(F)ccc2/C1=C\c1ccc([S+](C)[O-])cc1 [Sulindac] + N=C(N)NC(=N)NCCc1ccccc1 [Phenformin] (partner 250 µM)
How it was run: as §1

Cell Line | relative viability ([1]; first compound 0.005 µM) | relative viability ([1]; first compound 0.01581 µM) | relative viability ([1]; first compound 0.05 µM) | relative viability ([1]; first compound 0.1581 µM) | relative viability ([1]; first compound 0.5 µM) | relative viability (Sulindac + Crizotinib; first compound 0.08 µM) | relative viability (Sulindac + Crizotinib; first compound 0.253 µM) | relative viability (Sulindac + Crizotinib; first compound 0.8 µM) | relative viability (Sulindac + Crizotinib; first compound 2.53 µM) | relative viability (Sulindac + Crizotinib; first compound 8 µM) | relative viability ([2]; first compound 0.02 µM) | relative viability ([2]; first compound 0.2 µM) | relative viability ([2]; first compound 0.6325 µM) | relative viability ([2]; first compound 2 µM) | relative viability (Sulindac + Phenformin; first compound 0.08 µM) | relative viability (Sulindac + Phenformin; first compound 0.253 µM) | relative viability (Sulindac + Phenformin; first compound 0.8 µM) | relative viability (Sulindac + Phenformin; first compound 2.53 µM) | relative viability (Sulindac + Phenformin; first compound 8 µM)
NCI-H2228 | 0.328 | 0.245 | 0.232 | 0.069 | 0.0624 | 0.504 | 0.47 | 0.519 | 0.475 | 0.479 | 1.03 | 0.911 | 0.811 | 0.442 | 0.388 | 0.352 | 0.254 | 0.271 | 0.341
NCI-H2347 | 0.226 | 0.212 | 0.19 | 0.233 | 0.232 | 0.77 | 0.688 | 0.684 | 0.812 | 0.819 | 0.962 | 1.1 | 0.367 | 0.446 | 0.379 | 0.33 | – | 0.375 | 0.381
NCI-H2405 | 0.111 | 0.11 | 0.114 | 0.0659 | 0.0751 | 0.907 | 0.899 | 0.701 | 0.85 | 0.939 | 0.943 | 1.02 | 0.96 | 0.681 | 0.395 | 0.455 | 0.505 | 0.389 | 0.465
NCI-H3122 | 0.861 | – | 0.756 | 0.232 | 0.0614 | 0.282 | 0.251 | 0.266 | 0.232 | 0.259 | 0.998 | 0.897 | 0.353 | 0.298 | 0.384 | 0.37 | 0.626 | 0.325 | 0.413
PC-3 [JPC-3] | – | 0.424 | 0.375 | 0.235 | 0.204 | 1.09 | 1.06 | 0.959 | 1.02 | 1.02 | 0.841 | 0.84 | 0.762 | 0.643 | 0.475 | 0.494 | 0.657 | 0.458 | 0.548
PC-14 | 0.0423 | 0.0358 | 0.0229 | 0.0364 | 0.0239 | 0.942 | 0.891 | 0.726 | 0.911 | 1.02 | 0.876 | 0.897 | 0.818 | 0.516 | 0.571 | 0.403 | 0.403 | 0.537 | 0.853
RERF-LC-KJ | 0.416 | 0.364 | 0.223 | 0.192 | 0.201 | 0.816 | 0.903 | 0.853 | 0.891 | 0.914 | 1.24 | 1.17 | 1.14 | 0.939 | 0.43 | 0.418 | 0.414 | 0.455 | 0.45
SK-LU-1 | 0.183 | – | – | 0.102 | 0.1 | 0.844 | 1.22 | 0.781 | 0.975 | 1.26 | 1.12 | 1.34 | 1.18 | 0.981 | 0.498 | 0.567 | 0.444 | 0.444 | 0.668
SW 1573 | 0.129 | 0.116 | 0.0863 | 0.0538 | 0.0496 | 0.825 | 0.742 | 0.766 | 0.869 | 0.867 | 1.08 | 1.1 | 0.922 | 0.638 | 0.458 | 0.365 | – | 0.388 | 0.509
